Assay results published in US11584765B2 (priority 2017, dated 2023).

What follows are compounds tested on C57BL/6 mice (assay: animal or person). Settings: Mus musculus, sc, 0.5 h, s.c. administration, 30 min, 55° C. water, read-out: ED50 (mg/kg) at 30 min on C57BL/6 mice in Warm-water Tail-flick Test.
Type: in vivo

**Q.** How did the ED50 turn out when `CC(=O)Nc1ccc(CN2CCC(C(=O)c3ccccc3)(c3ccccn3)CC2)cc1` [Compound 42, N-(4-((4-benzoyl-4-(pyridin-2-yl)piperidin-1-yl)methyl)phenyl)acetamide] was run?
**A.** > 10 mg/kg

**Q.** With `CC(=O)N(C)c1ccc(CN2CCC(CCc3ccccc3)(c3ncc[nH]3)CC2)cc1` [Compound 43, N-(4-((4-(1H-imidazol-2-yl)-4-phenethylpiperidin-1-yl)methyl)phenyl)-N-methylacetamide] as the compound, how does the ED50 read?
**A.** > 10 mg/kg

**Q.** `CC(=O)Nc1ccc(CN2CCC(/C=C/c3ccccn3)(c3ccccn3)CC2)cc1` [Compound 44, (E)-N-(4-((4-(pyridin-2-yl)-4-(2-(pyridin-2-yl)vinyl)piperidin-1-yl)methyl)phenyl)acetamide] was tested. Which ED50 did it give?
**A.** > 10 mg/kg

**Q.** For `CC(=O)Nc1ccc(CN2CCC(c3ccccn3)(C(O)c3ccccc3)CC2)cc1` (stereo not shown) [Compound 45, N-(4-((4-(hydroxy(phenyl)methyl)-4-(pyridin-2-yl)piperidin-1-yl)methyl)phenyl)acetamide], which ED50 is on record?
**A.** > 10 mg/kg

**Q.** `CC(=O)Nc1ccc(CN2CCC(/C=C/Cc3ccccc3)(c3ccccn3)CC2)cc1` [Compound 46, (E)-N-(4-((4-(3-phenylprop-1-enyl)-4-(pyridin-2-yl)piperidin-1-yl)methyl)phenyl)acetamide] was tested. Which ED50 did it give?
**A.** > 10 mg/kg

**Q.** `CC(=O)Nc1ccc(CN2CCC(/C=C/c3ccccc3)(c3cccc(F)n3)CC2)cc1` [Compound 47, (E)-N-(4-((4-(6-fluoropyridin-2-yl)-4-styrylpiperidin-1-yl)methyl)phenyl)acetamide] was tested. Which ED50 did it give?
**A.** > 10 mg/kg

**Q.** How did the ED50 turn out when `CC(=O)Nc1ccc(CN2CCC(/C=C/c3ccccc3)(c3cccnc3)CC2)cc1` [Compound 48, (E)-N-(4-((4-(pyridin-3-yl)-4-styrylpiperidin-1-yl)methyl)phenyl)acetamide] was run?
**A.** > 10 mg/kg

**Q.** For `C=CCC1(c2ccccn2)CCN(Cc2ccc(NC(C)=O)cc2)CC1` [Compound 49, N-(4-((4-allyl-4-(pyridin-2-yl)piperidin-1-yl)methyl)phenyl)acetamide], which ED50 is on record?
**A.** > 10 mg/kg

**Q.** Which ED50 does the source give for `O=C(Nc1ccc(CN2CCC(CCc3ccccc3)(c3ccccn3)CC2)cc1)C(F)(F)F` [Compound 50, 2,2,2-trifluoro-N-(4-((4-phenethyl-4-(pyridin-2-yl)piperidin-1-yl)methyl)phenyl)acetamide] here?
**A.** > 10 mg/kg

**Q.** `CC(=O)Nc1ccc(CN2CCC(CCc3ccccc3)(c3ccccn3)CC2)cc1F.Cl` [Compound 52, N-(2-fluoro-4-((4-phenethyl-4-(pyridin-2-yl)piperidin-1-yl)methyl)phenyl)acetamide HCl] was tested. Which ED50 did it give?
**A.** > 10 mg/kg

**Q.** For `CC(=O)Nc1ccc(CN2CCC(CCc3ccccc3)(c3ccccn3)CC2)c(F)c1` [Compound 53, N-(3-fluoro-4-((4-phenethyl-4-(pyridin-2-yl)piperidin-1-yl)methyl)phenyl)acetamide], which ED50 is on record?
**A.** > 10 mg/kg

**Q.** With `CNC(=O)c1ccc(CN2CCC(CCc3ccccc3)(c3ccccn3)CC2)cc1` [Compound 54, N-methyl-4-((4-phenethyl-4-(pyridin-2-yl)piperidin-1-yl)methyl)benzamide] as the compound, how does the ED50 read?
**A.** > 10 mg/kg

**Q.** How did the ED50 turn out when `NC(=O)c1ccc(CN2CCC(CCc3ccccc3)(c3ccccn3)CC2)cc1` [Compound 55, 4-((4-phenethyl-4-(pyridin-2-yl)piperidin-1-yl)methyl)benzamide] was run?
**A.** > 10 mg/kg

**Q.** Which ED50 does the source give for `CC(=O)Nc1ccc(CN2CCC(CCc3ccccc3)(CN(C)C)CC2)cc1` [Compound 56, N-(4-((4-((dimethylamino)methyl)-4-phenethylpiperidin-1-yl)methyl)phenyl)acetamide] here?
**A.** > 10 mg/kg

**Q.** How did the ED50 turn out when `CC(=O)Nc1ccc(CN2CCC(CCc3ccccc3)(CN(C)C(C)=O)CC2)cc1` [Compound 57, N-((1-(4-acetamidobenzyl)-4-phenethylpiperidin-4-yl)methyl)-N-methylacetamide] was run?
**A.** > 10 mg/kg

**Q.** How did the ED50 turn out when `CC(=O)Nc1ccc(CN2CCC(CCc3ccccc3)(COC(C)=O)CC2)cc1` [Compound 58, (1-(4-acetamidobenzyl)-4-phenethylpiperidin-4-yl)methyl acetate] was run?
**A.** > 10 mg/kg

**Q.** `CCOCC1(CCc2ccccc2)CCN(Cc2ccc(NC(C)=O)cc2)CC1` [Compound 59, N-(4-((4-(ethoxymethyl)-4-phenethylpiperidin-1-yl)methyl)phenyl)acetamide] was tested. Which ED50 did it give?
**A.** < 10 mg/kg

**Q.** Which ED50 does the source give for `CC(=O)Nc1ccc(CN2CCC(CCc3ccccc3)(C(N)=O)CC2)cc1` [Compound 60, 1-(4-acetamidobenzyl)-4-phenethylpiperidine-4-carboxamide] here?
**A.** > 10 mg/kg

**Q.** How did the ED50 turn out when `Oc1ccc(CN2CCC(CCc3ccccc3)(c3ccccn3)CC2)cc1` [Compound 61, 4-((4-phenethyl-4-(pyridin-2-yl)piperidin-1-yl)methyl)phenol] was run?
**A.** > 10 mg/kg

**Q.** For `COc1ccc(C2(/C=C/c3ccccc3)CCN(Cc3ccc(NC(C)=O)cc3)CC2)nc1` [Compound 62, (E)-N-(4-((4-(5-methoxypyridin-2-yl)-4-styrylpiperidin-1-yl)methyl)phenyl)acetamide], which ED50 is on record?
**A.** > 10 mg/kg

**Q.** `COc1ccc(C2(/C=C\c3ccccc3)CCN(Cc3ccc(NC(C)=O)cc3)CC2)nc1` [Compound 63, (Z)-N-(4-((4-(5-methoxypyridin-2-yl)-4-styrylpiperidin-1-yl)methyl)phenyl)acetamide] was tested. Which ED50 did it give?
**A.** > 10 mg/kg

**Q.** Which ED50 does the source give for `CS(=O)(=O)N(c1ccc(CN2CCC(CCc3ccccc3)(c3ccccn3)CC2)cc1)S(C)(=O)=O` [Compound 64, N-(methylsulfonyl)-N-(4-((4-phenethyl-4-(pyridin-2-yl)piperidin-1-yl)methyl)phenyl)methane-sulfonamide] here?
**A.** > 10 mg/kg

**Q.** Which ED50 does the source give for `CNC(=O)C1(CCc2ccccc2)CCN(Cc2ccc(NC(C)=O)cc2)CC1` [Compound 65] here?
**A.** > 10 mg/kg

**Q.** How did the ED50 turn out when `CC(=O)Nc1ccc(CN2CCC(CCc3ccccc3)(C(=O)N(C)C)CC2)cc1` [Compound 66, 1-(4-acetamidobenzyl)-N,N-dimethyl-4-phenethylpiperidine-4-carboxamide] was run?
**A.** > 10 mg/kg

**Q.** How did the ED50 turn out when `CC(=O)NCC1(CCc2ccccc2)CCN(Cc2ccc(NC(C)=O)cc2)CC1` [Compound 67, N-((1-(4-acetamidobenzyl)-4-phenethylpiperidin-4-yl)methyl)acetamide] was run?
**A.** > 10 mg/kg

**Q.** `CC(=O)Nc1ccc(CN2CCC(CO)(CCc3ccccc3)CC2)cc1` [Compound 68, N-(4-((4-(hydroxymethyl)-4-phenethylpiperidin-1-yl)methyl)phenyl)acetamide] was tested. Which ED50 did it give?
**A.** > 10 mg/kg

**Q.** `CC(=O)Nc1ccc(CN2CCC(CCc3ccccc3)(C3CCCO3)CC2)cc1` (stereo not shown) [Compound 69, N-(4-((4-phenethyl-4-(tetrahydrofuran-2-yl)piperidin-1-yl)methyl)phenyl)acetamide] was tested. Which ED50 did it give?
**A.** < 10 mg/kg

**Q.** `CC(=O)Nc1ccc(CN2CCC(CCc3ccccc3)(C3CCCCO3)CC2)cc1` (stereo not shown) [Compound 70, N-(4-((4-phenethyl-4-(tetrahydro-2H-pyran-2-yl)piperidin-1-yl)methyl)phenyl)acetamide] was tested. Which ED50 did it give?
**A.** > 10 mg/kg

**Q.** Which ED50 does the source give for `CC(=O)Nc1ccc(CN2CCCC(/C=C/c3ccccc3)(c3ccccn3)C2)cc1` (stereo not shown) [Compound 71, (E)-N-(4-((3-(pyridin-2-yl)-3-styrylpiperidin-1-yl)methyl)phenyl)acetamide] here?
**A.** > 10 mg/kg

**Q.** `COCC1(CCc2ccccc2)CCN(Cc2ccc(NC(C)=O)cc2)CC1` [Compound 72, N-(4-((4-(methoxymethyl)-4-phenethylpiperidin-1-yl)methyl)phenyl)acetamide] was tested. Which ED50 did it give?
**A.** > 10 mg/kg

**Q.** For `CC(=O)Nc1ccc(CN2CCC(CCc3ccccc3)(C3CC=CCO3)CC2)cc1` (stereo not shown) [Compound 73, N-(4-((4-(3,6-dihydro-2H-pyran-2-yl)-4-phenethylpiperidin-1-yl)methyl)phenyl)acetamide], which ED50 is on record?
**A.** > 10 mg/kg
